Entries after “also recorded” stand apart in the source; their conditions may differ.
Columns and labels:
AChmiRNA = system: AChmiRNA; parameters: species or system mice; conditions: mouse
activated caspase-3 = test: Activated caspase-3 immunostaining in Meg-01 cells; assay type: cell-based, human; conditions: 24 hours, agent alone
PKCβII = PKCβII immunocytochemistry in Meg-01 cells; assay type: cell-based, human; conditions: 24 hours
Meg-01 cells [1] = test: Scanning electron microscopy of Meg-01 cell surface (megakaryocytic maturation); assay type: cell-based, human; conditions: 24 hour treatment
Bcl-2 = Bcl-2 immunostaining in Meg-01 cells; assay type: cell-based, human
AChE-S mRNA = AChE-S mRNA level (fluorescent in situ hybridization) in Meg-01 cells; assay type: cell-based, human; conditions: for AChE-S mRNA level by FISH: agent alone; for AChE-S mRNA level on co-administration with Thapsi: Thapsi 10 nM plus oligo 100 nM
Meg-01 cells [2] = test: Nuclear area measurement of Meg-01 cells; assay type: cell-based, human; conditions: 24 hours
AChmiRNA (miRNA-181a) = AChmiRNA (miRNA-181a) level by real-time RT-PCR in Meg-01 cells; assay type: cell-based, human; conditions: for level of AChmiRNA: Meg-01 cells treated for 24 hours, agent alone
Meg-01 cells [3] = test: Adhesion assay of MEG-01 cells; assay type: cell-based, human; conditions: 72 hours
ASF/SF2 = test: Splice factor ASF/SF2 in Meg-01 cells; assay type: cell-based, human; conditions: data not shown
AChE-R mRNA = AChE-R mRNA level (RT-PCR, fluorescent in situ hybridization) in Meg-01 cells; assay type: cell-based, human; conditions: for AChE-R mRNA level (RT-PCR): 24 hours; for AChE-R mRNA level by FISH (population distribution): agent alone; for AChE-R mRNA level on co-administration with Thapsi: Thapsi 10 nM plus oligo 100 nM
Meg-01 cells [4] = test: Ploidy / DNA content of Meg-01 cells by FACS and propidium iodide; assay type: cell-based, human; conditions: 72 hours
c-Myc = c-Myc immunohistochemistry in Meg-01 cells; assay type: cell-based, human
AChE-S = AChE-S protein immunocytochemistry in Meg-01 cells; assay type: cell-based, human; conditions: 24 hours
activated caspase-9 = test: Activated caspase-9 immunostaining in Meg-01 cells; assay type: cell-based, human
AChE-R = AChE-R protein immunocytochemistry in Meg-01 cells; assay type: cell-based, human; conditions: 24 hours
Meg-01 cells [5] = test: DNA fragmentation by TUNEL assay in Meg-01 cells; assay type: cell-based, human
miRNA181a = test: Northern blot of miRNA181a in Meg-01 cells; assay type: cell-based, human; conditions: in the presence or absence of Thapsi and/or AChmiON
Experimental: Cultured Meg-01 cells were co-incubated with thapsigargin (10 nM) and synthetic AChmiON (miR-181) (SEQ ID NO:23; at 100 nM) or anti-miR-181 (SEQ ID NO:24 (modified, identical in sequence to SEQ ID NO:2); at 100 nM.

[6] = system: Murine macrophage RAW 264.7 cells; test: Nitric oxide production (nitrite, Griess) by RAW 264.7 macrophages; assay type: cell-based
Experimental: Murine macrophage RAW 264.7 cells were cultured in 48 well plates (50×10^3 cells per well). The production of NO by these macrophages was examined following various stimuli (6 repetitions for each treatment) at three time intervals (6, 12 and 24 hours) as depicted in FIGS. 27a, 27b and 27c.
Mouse RAW cells, human U937 cells and primary human macrophages were treated for 24 h with 1 μM CpG oligonucleotides or 1 μg/ml bacterial lipopolysaccharide added to standard growth medium
Interleukin 6 expression was assayed by QRT-PCR, nitric oxide was measured by Griess assay and prostaglandin E2 levels were measured by R&D ELISA kit according to manufacturer's instructions.

AChE = AChE catalytic activity (Ellman) in RAW 264.7 cells; assay type: cell-based, murine

Molecule | incidence of activated caspase-3 positive cells (activated caspase-3) | staining intensity for PKCβ (PKCβII) | cell surface morphology (scanning electron microscopy) (Meg-01 cells [1]) | immunoreactivity of Bcl-2 (Bcl-2) | AChE-S mRNA level by FISH (AChE-S mRNA) | nuclear area / nuclei size (Meg-01 cells [2]) | level of AChmiRNA (AChmiRNA (miRNA-181a)) | cell adhesion (Meg-01 cells [3]) | AChE-R mRNA level (RT-PCR) (AChE-R mRNA) | AChE-R mRNA level by FISH (population distribution) (AChE-R mRNA) | ploidy (DNA content) (Meg-01 cells [4]) | expression of the AChE-S variant (immunohistochemistry) (AChE-S) | incidence of activated caspase-9 positive cells (activated caspase-9) | AChE-R protein level (immunohistochemistry) (AChE-R) | DNA fragmentation / cell death (TUNEL) (Meg-01 cells [5]) | AChE-S mRNA level on co-administration with Thapsi (AChE-S mRNA) | AChE-R mRNA level on co-administration with Thapsi (AChE-R mRNA) | also measured
CN1CC=C(c2ccccc2)CC1 [MPTP, 1-Methyl-4-phenyl-1,2,3,6-tetrahydropyridine] |  |  |  |  |  |  |  |  |  |  |  |  |  |  |  |  |  | AChmiRNA levels in vivo (AChmiRNA): decreases of AChmiRNA levels
C/C=C(/C)C(=O)O[C@H]1C(C)=C2[C@H]([C@@H]1OC(=O)CCCCCCC)[C@@](C)(OC(C)=O)C[C@H](OC(=O)CCC)[C@@]1(O)[C@H]2OC(=O)[C@@]1(C)O [Thapsi, Thapsigargin] | increase in the incidence of activated caspase-3 positive cells | increased staining intensity for PKCβ | a very early stage in the formation of demarcation membranes | decrease in the immunoreactivity of Bcl-2 | decrease in AChE-S mRNA level | increase in the nuclear area | induced a decrease in AChmiRNA | increased adhesion of treated cells | increasing the levels of AChE-R mRNA variant | rightward shift in the population distribution of labeling intensity; also recorded: increase in AChE-R mRNA level | a bigger fraction of cells became polyploid | decrease of expression of the AChE-S variant | increased the incidence of positive cells for activated caspase-9 immunostaining | increase also in the protein level | no significant changes |  |  | decrease in the levels of AChmiRNA (AChmiRNA (miRNA-181a); Meg-01 cells, Thapsi treatment (ER-calcium release), real-time RT-PCR): 50%; splice factor ASF/SF2 (ASF/SF2): induced; c-myc expression (c-Myc; agent alone): c-myc increase induced by Thapsi
anti-AChmiRNA: antisense oligonucleotide complementary to AChmiRNA (SEQ ID NO:2; modified SEQ ID NO:24) (ACUCACCGACAGCGUUGAAUGUU; modified, pattern not given here) |  |  |  |  |  |  |  |  |  |  |  |  |  |  | normal level of TUNEL staining | prevented the Thapsigargin-induced suppression of AChE-S mRNA | maintaining the increase in AChE-R mRNA | level of AChmiRNA (miRNA181a) by Northern blot (miRNA181a): decreased the level of anti-AChmiRNA; level of AChmiRNA (miRNA181a) by Northern blot (miRNA181a; listed as anti-miR181): reducing the level of miRNA181a in the presence or absence of Thapsi and/or AChmiON
AChmiON: fully 2′-O-methylated oligonucleotide with the sequence of human/murine miRNA-181a (modified SEQ ID NO:23; unmodified SEQ ID NO:1) (AACAUUCAACGCUGUCGGUGAGU; all 2'-O-methyl, backbone not given here) |  |  |  |  | increased the fraction of cells with high AChE-S levels |  |  | suppressed this effect |  | levels remained unchanged |  |  |  |  | increased incidence of positive cells; also recorded: significantly increased apoptosis | keeping AChE-S mRNA level above control values | inhibiting the increase in AChE-R mRNA level | speed of the NO response ([6]; RAW 264.7, 6, 12 and 24 hours): slower than the response to LPS or IFN-γ; maximal NO effect relative to the LPS effect ([6]; RAW 264.7, 24 hour post-treatment, AChmiON 100 nM): about 80%; Nitrite concentration reflecting NO production ([6]; RAW 264.7, 24 hours, LPS 1 μg/ml, IFN-γ 4 ng/ml, oligos 100 nM): 38 µM; NO production versus control (in words) ([6]; RAW 264.7 macrophages): significantly up-regulated NO production; Thapsi-induced ASF/SF2 on co-treatment (ASF/SF2; Thapsi plus AChmiON): suppressed part of this effect; Thapsi-induced c-myc increase on co-treatment (c-Myc; Thapsi plus AChmiON): could not prevent the c-myc increase induced by Thapsi
ARP: human AChE-R C-terminal peptide GMQGPAGSGWEEGSGSPPGVTPLFSP (ARP peptide (synthetic)) | increased the fraction of cells immunopositive for activated caspase-3 | increased staining intensity for PKCβ | induced cell surface modifications | decrease in the immunoreactivity of Bcl-2 |  | increased | decreased the level of AChmiRNA |  | increased the level of AChE-R mRNA | rightward shift in the population distribution of labeling intensity | increased ploidy | decrease of expression of the AChE-S variant | increased the incidence of positive cells for activated caspase-9 immunostaining | increase also in the protein level | no significant changes |  |  | 
C=CC[N+](C)(C)c1ccc(CCC(=O)CCc2ccc([N+](C)(C)CC=C)cc2)cc1.[Br-].[Br-] [BW284c51, 1,5-Bis(4-allyldimethylammoniumphenyl)pentan-3-one dibromide] |  |  |  |  |  |  |  |  |  |  |  |  |  |  |  |  |  | AChE activity (AChE; RAW 264.7 cells, 24 hr, LPS 1 μg/ml, BW 284 C51 10 μM (Example 13)): reduced AChE activity; AChE activity (AChE; macrophages (RAW 264.7), 1 micromolar BW284c51, 100 nanomolar CpG 1826): decrease

— US20130317092A1 (priority 2007, published 2013)
